The values below come from patent US20090170808A1, “ORAL AGENT FOR IMPROVING AND PROTECTING THE FUNCTION OF JOINT COMPRISING HYALURONIC ACID-PHOSPHOLIPID COMPLEXES” (priority 2005, published 2009).

The subject of experiment [1] is papain-induced OA model in rabbit. The experiment is described as follows: GAG content in knee joint cartilage, papain-induced OA model in rabbit (azure A method). Format: in vivo. Set-up: unit not given here. The note with it: n = 6, x ± s. Here is the method:
(§1) 30 rabbits were randomly divided into five groups, i.e., normal control group; normal saline (NS) injection group; hyaluronic acid (HA) oral administration group; hyaluronic acid (HA) injection group; and hyaluronic acid-phospholipid complex (HA-PL, the complex of Preparation Example 2) oral administration group.
(§2) Using the papain-induced OA model in rabbit, the latter four groups of rabbits received injection of 0.1 ml of a papain solution (1.8 mg papain and 50 mg cysteine hydrochloride in 1 ml normal saline, sterile filtered through a 0.22 μm filter membrane) into the right knee articular cavity. A second injection was performed 3 days later.
Starting on Day 7 post-modeling, the rabbits were dosed. […] For oral administration, the respective agent was given intragastrically every day, at a dosage 40 mg/kg body weight, calculated as hyaluronic acid, in a volume of 1 ml/100 g body weight, for 2 weeks.
(§3) After completion of the administration, synovial fluid was aspirated, and the rabbits were sacrificed. […] The total amount of GAG in the cartilage was determined by the azure A method, and the level of HA in the synovial fluid was determined using an HA RIA kit.
The content of GAG in samples from each group was expressed as the amount contained in every 1 mg wet weight of the cartilage ( x±s), and was analyzed by t-test for significance test.

For experiment [2] the test system is unchanged. The experiment is described as follows: HA content in knee joint synovial fluid, papain-induced OA model in rabbit (HA RIA kit). Format: in vivo. The note with it: n = 6, x ± s. The method, then: as §1, §2
Starting on Day 7 post-modeling, the rabbits were dosed. For administration by injection into joint cavity, a injection volume of 0.3 ml, and a hyaluronic acid concentration of 10 mg/ml were used, once every five days for a total of 3 injections during the test. For oral administration, the respective agent was given intragastrically every day, at a dosage 40 mg/kg body weight, calculated as hyaluronic acid, in a volume of 1 ml/100 g body weight, for 2 weeks.
as §3

Where [3] appears, read: injection into joint cavity, 0.3 ml of 10 mg/ml, once every five days, 3 injections.
Where [4] appears, read: oral (intragastric) daily, 40 mg/kg calculated as hyaluronic acid, 2 weeks.

Marks after values point to notes of the source that are not given here.

Take hyaluronic acid [HA]: the entries for the “GAG Content in knee joint cartilages” value in experiment [1] (setting [3]) and in experiment [1] (setting [4]) were 29.9 ± 4.4^1),2) ng · ml^−1 and 23.3 ± 4.2, respectively. Further, the “HA content in knee joint synovial fluid” value in experiment [2] (setting [3]) was 4.64 ± 0.51^1) mg · ml^−1; in experiment [2] (setting [4]) it was 4.65 ± 0.54^1) mg · ml^−1.
